In PubChem BioAssay (NCI):
Several values for one entry are separate records, joined by “and”; a condition that tells them apart may be missing. Equal values may be shown once.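 The compound was tested at five concentrations on cells cultured in 96-well plates, with a 48-hour exposure period. GI50 is the concentration that inhibits growth by half. At the TGI there is no net growth.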

Experiments:
Experiment in all cases: NCI tumour cell line growth inhibition, 48 h
[1] = test system: MALME-3M melanoma
[2] = test system: EKVX NSCLC
[3] = test system: PC-3 prostate
[4] = test system: NCI-H226 lung
[5] = test system: A498 renal
[6] = test system: K-562 leukemia
[7] = test system: M14 melanoma
[8] = test system: NCI-H460 lung
[9] = test system: UACC-62 melanoma
[10] = test system: SNB-19 CNS

SMILES	GI50 [1]	TGI [1]	GI50 [2]	TGI [2]	GI50 [3]	TGI [3]	GI50 [4]	TGI [4]	GI50 [5]	TGI [5]	GI50 [6]	TGI [6]	GI50 [7]	TGI [7]	GI50 [8]	TGI [8]	GI50 [9]	TGI [9]	GI50 [10]	TGI [10]
CCOC(=O)C#Cc1c(CC(=O)OCC)nnn1[C@H]1O[C@@H](CO)[C@@H]2OC(C)(C)O[C@@H]21	2 µM	4.16 µM	17.3 µM	35.1 µM	16.1 µM	31 µM	1.79 µM	3.26 µM	17.7 µM	31.5 µM	3 µM	11.1 µM	3.58 µM	12.8 µM	15 µM	33.2 µM	1.84 µM	4.14 µM	33.9 µM	> 100 µM
C[C@@H]1C[C@@]2(O[C@@H]2C)C(=O)O[C@@H]2CCN3CC=C(COC(=O)[C@]1(C)O)[C@H]23		> 100 µM		> 100 µM		> 100 µM		> 100 µM		> 100 µM		> 100 µM		> 100 µM		> 100 µM		> 100 µM		> 100 µM
N#Cc1nc2cc(F)c(F)cc2nc1-c1ccc(Cl)cc1	15.8 µM	39.1 µM	10.4 µM	> 69.4 µM	4.27 µM	20.2 µM	3.44 µM	> 63.2 µM	82 µM	> 100 µM	2.99 µM	> 27.8 µM	7.93 µM	23.8 µM	57.5 µM	> 100 µM	0.645 µM	7.17 µM	14.5 µM	> 85.9 µM
Cc1ccc(S(=O)(=O)Nc2nc3ccccc3nc2Nc2ccc3nsnc3c2)cc1	2.18 µM and 1.34 µM		4.03 µM and 3.6 µM	> 100 µM	3.22 µM and 2.91 µM	> 100 µM	5.38 µM and 7.55 µM	> 100 µM	4.85 µM and 2.86 µM	> 100 µM	3.7 µM and 2.82 µM	> 100 µM	4.05 µM and 4.35 µM	> 100 µM	3.36 µM and 2.92 µM	70.7 µM and > 100 µM	1.81 µM and 2.02 µM	10.4 µM and > 28.2 µM	3.29 µM and 3.54 µM	> 100 µM
O=P1(O)c2ccccc2Nc2cc(C(F)(F)F)ccc21		> 100 µM		> 100 µM		> 100 µM		> 100 µM		> 100 µM		> 100 µM		> 100 µM		> 100 µM		> 100 µM		> 100 µM
CCCN(CCC)C(=O)[C@H](CC)[C@@H]1CC[C@@H](C)[C@@H]([C@H](C)[C@@H](O)[C@@H](C)C(=O)[C@H](CC)C2O[C@]3(C=C[C@@H](O)[C@]4(CC[C@@](C)([C@H]5CC[C@](O)(CC)[C@H](C)O5)O4)O3)[C@H](C)C[C@@H]2C)O1 (stereo partly specified)	1.72 µM	3.71 µM	2.59 µM	11.7 µM	2.05 µM	11 µM	1.93 µM	5.3 µM	2.13 µM	5.85 µM	2.68 µM	13 µM			2.07 µM	4.62 µM	1.71 µM	4.93 µM	3.36 µM	59.2 µM
COc1ccc(/C=C/C(=O)c2cc3c(N)c(C(=O)Nc4ccccc4)sc3nc2C)cc1	1.7 µM	> 50 µM	0.752 µM	> 50 µM	0.184 µM	> 50 µM	0.55 µM	7.28 µM	0.114 µM	0.487 µM	0.14 µM	> 50 µM	0.0907 µM	> 50 µM	0.195 µM		0.119 µM	> 50 µM	0.269 µM	> 50 µM
CNc1nc(N(C)C)nc(N(C)C)n1	> 100 µM and 1160 µM	> 100 µM and 2110 µM	> 100 µM and 2180 µM	> 100 µM and 4800 µM		3960 µM		2530 µM	> 100 µM and 1300 µM	> 100 µM and 2970 µM	> 100 µM and 831 µM	> 100 µM and 3230 µM		2600 µM	> 100 µM and 894 µM	> 100 µM and 3000 µM	> 100 µM and 952 µM	> 100 µM and 3640 µM	> 100 µM and 1210 µM	> 100 µM and 3780 µM
COc1cc(-c2oc3c(OC)c(O)c(OC)c(O)c3c(=O)c2OC)ccc1O		> 100 µM		> 100 µM		> 100 µM		> 100 µM		> 100 µM		> 100 µM		96 µM		> 100 µM		> 100 µM		> 100 µM
O=C1/C(=C/c2ccc(Cl)cc2)COc2ccc(O)c(O)c21	1.47 µM	3.47 µM	1.49 µM	3.19 µM	0.501 µM	3.48 µM	1.86 µM	5.18 µM	2.95 µM	9.19 µM	0.321 µM	> 100 µM	1.92 µM	4.77 µM	1.78 µM	3.89 µM	1.27 µM	2.63 µM	1.43 µM	2.95 µM
Oc1c(N=Nc2ccccc2)c2ccccc2c2ccc3ccccc3c12		> 100 µM		> 100 µM		> 100 µM		> 100 µM		> 100 µM		> 100 µM		> 100 µM		> 100 µM		> 100 µM		> 100 µM
OC(CNc1ccnc2cc(Cl)ccc12)CNC1CCCCC1 (stereo unspecified)	1.89 µM	3.8 µM	6.15 µM	27 µM	8.08 µM	28.7 µM	12.9 µM	34.9 µM	1.52 µM	8.16 µM	2.07 µM	5.17 µM	1.65 µM	3.11 µM	13.8 µM	30.2 µM	2.15 µM	5.2 µM	22.4 µM	75.5 µM
CCOC1C=CCCO1 (stereo unspecified)		> 100 µM		> 100 µM		> 100 µM		> 100 µM		> 100 µM		> 100 µM		> 100 µM		> 100 µM		> 100 µM		> 100 µM
OC(CNC1CCCC1)Cn1c2ccccc2c2ccccc21 (stereo unspecified)	37 µM	> 100 µM	42.3 µM	> 100 µM	> 100 µM	> 100 µM	32.1 µM	> 100 µM	10.7 µM	47.7 µM	> 100 µM	> 100 µM	> 100 µM	> 100 µM	> 100 µM	> 100 µM	32.7 µM	> 100 µM	29.4 µM	> 100 µM
N#CC1=C(N)Oc2c(sc3c(F)cccc23)C1c1ccc(F)cc1 (stereo unspecified)	0.602 µM	22.2 µM	3.24 µM	20.2 µM	0.892 µM	16.2 µM	1.71 µM	15.8 µM	0.15 µM	0.909 µM	0.354 µM	18.4 µM	0.41 µM	6.41 µM	0.415 µM	7.77 µM	0.551 µM	14.9 µM	0.585 µM	15 µM
C=C1CC[C@@H]2[C@](C)(COC(C)=O)[C@H](OC(C)=O)CC[C@@]2(C)[C@@H]1C/C=C1/C(=O)OC[C@H]1OC(C)=O	2.98 µM	7.95 µM	12.9 µM	25.6 µM	6.07 µM	19.9 µM	2.14 µM	5.42 µM	14.4 µM	27.5 µM	2.63 µM	32.1 µM	2.22 µM	6.48 µM	18.6 µM	37.7 µM	3.37 µM	13.5 µM	10.8 µM	24.5 µM
COCCNC(=O)c1ccc(-c2nc3ccc4[nH]ncc4c3c3c2CCCC3)cc1	2.74 µM	18 µM	1.61 µM	43.2 µM	2.96 µM	> 100 µM	2.47 µM	> 100 µM	0.174 µM	2.93 µM	3.86 µM	> 100 µM	1.39 µM	> 100 µM	1.86 µM	27.1 µM	1.58 µM	13.1 µM	3.79 µM	> 100 µM
COc1cc(/C=C/C(=O)c2c(C)n([O-])c3ccc(Cl)cc3[n+]2=O)cc(OC)c1OC	14.1 µM	35.3 µM	25.2 µM	> 100 µM	27.5 µM	> 100 µM	65.2 µM	> 100 µM	23.5 µM	> 100 µM	15.2 µM	> 100 µM	> 100 µM	> 100 µM	56.6 µM	> 100 µM	> 100 µM	> 100 µM	21.2 µM	77 µM
CCCCCN(CCCCC)CC(O)c1cc2c(c3ccccc13)CCCC2 (stereo unspecified)	3.71 µM and 10.4 µM	15.6 µM and 24.6 µM	4.92 µM	17.7 µM	5.14 µM and 5.62 µM	21.6 µM and 20.9 µM	5.64 µM and 11 µM	20.3 µM and 29.2 µM	3.34 µM and 10.8 µM	14.1 µM and 23.5 µM	2.56 µM and 16.3 µM	10.9 µM and > 100 µM	4.76 µM and 10.4 µM	16.3 µM and 23.8 µM	3.4 µM and 4.36 µM	13.8 µM and 16.1 µM	3.31 µM and 11.2 µM	12.9 µM and 29.2 µM	11 µM and 17.9 µM	22.9 µM and 39.4 µM
COC(=O)[C@@H](C)C[C@H](Cc1ccccc1)NC(=O)c1csc([C@@H](C[C@H](C(C)C)N(C)C(=O)C2(NC(=O)[C@H]3CCCCN3C)CC2)OC(C)=O)n1	> 33.3 µM	> 33.3 µM		> 33.3 µM	0.00523 µM and 0.00333 µM	> 33.3 µM	0.00333 µM	> 33.3 µM	0.00858 µM and < 0.00333 µM		0.00244 µM and 0.00333 µM	> 33.3 µM	0.00504 µM and 0.00333 µM	0.468 µM	0.0111 µM and 0.00333 µM	> 33.3 µM	0.00352 µM and 0.00333 µM	> 33.3 µM	0.00824 µM and 0.00333 µM	> 33.3 µM
CCCCCCCCCCCC[n+]1ccc(C(N)=O)cc1	2.59 µM	8.81 µM	2.55 µM	12.8 µM	0.71 µM	3.55 µM	3.43 µM	16.3 µM	4.85 µM	19.5 µM	2.87 µM	> 100 µM	2.58 µM	9.7 µM	3.81 µM	14.1 µM	2.74 µM	11.6 µM	1.82 µM	4.34 µM
OCCNCCNc1c2ccccc2nc2oc3ccccc3c12	11.4 µM	41.8 µM	13 µM	46.1 µM	9.73 µM	34.7 µM	20.5 µM	62 µM	8.27 µM	21.9 µM	33.9 µM	> 100 µM	12 µM	24.5 µM	4.44 µM	17.5 µM	14.1 µM	31.5 µM	11.6 µM	36.2 µM
NCCCCN(Cc1nc2ccccc2[nH]1)[C@H]1CCCc2cccnc21	13.2 µM	28.2 µM	15.2 µM	> 100 µM	5.52 µM	> 93.2 µM	12.5 µM	44.4 µM	7.81 µM	> 51.8 µM	12.6 µM	43.3 µM	13.9 µM	30.2 µM	7.47 µM	> 100 µM	17.8 µM	47.4 µM	26.9 µM	> 100 µM
O=C(N/N=C\c1ccc(N(CCCl)CCCl)cc1Cl)c1cccnc1	21.4 µM	64.2 µM	22.6 µM	> 83.6 µM	19.2 µM	> 100 µM	0.127 µM	0.604 µM	0.0664 µM	0.179 µM	7.38 µM	> 100 µM	26.5 µM	> 83.7 µM	0.192 µM	12.7 µM	0.513 µM	3.92 µM	45.1 µM	> 100 µM
